How the values were obtained:
Liver microsome assay = format: in vitro ADME, murine; conditions: 40 µM, after 60 min
Method: Microsome experiments with [^18F]7b in the presence of NADPH were performed according to the procedure recently described by us with slight modifications (Lemm et al. [2022]). […] [^18F]7b dissolved in 0.5% ethanol/PBS (100 µL; 0.2% ethanol final, e.g. 108 MBq/mL or 4.1 µM final) was mixed with PBS (112.5 µL) and murine liver microsomes (MLM, 12.5 µL of 20 mg/mL stock; 1 mg/mL final; Gibco™ Cat. No. MSMCPL, Lot. No. MS053-A) in a 1.5 mL Eppendorf tube and the mixture was warmed for 5 min at 37 °C. Subsequently, NADPH (25 µL of freshly prepared 20 mM solution in PBS, 2 mM final) was added and the mixture was incubated at 37 °C. As a control incubation, the NADPH solution was replaced by PBS. At distinct time points (5, 10, 15, 30, and 60 min), an aliquot (40 µL) was withdrawn and added to ice-cold CH3CN (160 µL). The mixture was vortexed for 30 s, stored on ice for 4 min and centrifuged (5 min at 16,100 × g). The resulting supernatant was used for radio-HPLC and radio-TLC analyses. For radio-HPLC, the Shimadzu Nexera X2 UHPLC system described above including the conditions for analysis was used. Radio-TLC was carried out on reversed-phase TLC plates (ALUGRAM RP-18W/UV254 from Macherey–Nagel, Düren, Germany) with a mobile phase of 40% CH3CN in water containing 0.1% trifluoroacetic acid. Visualization of radioactive spots and subsequent analysis was conducted as described above.
Testosterone (40 µM final) was used as positive control for the activity of the MLM and was separately treated and analyzed after incubation times of 5, 10, 15, 30, and 60 min as described above (0% ethanol final; HPLC gradient profile: 45% eluent B for 10 min followed by washing of the column with 45% to 95% eluent B in 1 min, 95% eluent B for 5 min, 95% to 45% eluent B in 1 min, 45% eluent B for 8 min; total time of 25 min).
For that, solutions of [^18F]7b in 0.5% ethanol/PBS (10 µL; 0.1% ethanol final, 17 MBq/mL or 1.14 µM final) were mixed with the respective tenfold concentrated solutions of 7b dissolved in 10% DMSO/PBS (5 µL, 1% DMSO final and 5/10/20/40/80 µM of 7b final), PBS (27.5 µL) and murine liver microsomes (2.5 µL of 20 mg/mL stock) in a 1.5 mL Eppendorf tube and the mixture was warmed for 5 min at 37 °C. Subsequently, NADPH (5 µL of freshly prepared 20 mM solution in PBS, 2 mM final) was added and the mixture was incubated at 37 °C. At distinct time points (5, 10, 15, 20, and 30 min), an aliquot (5 µL) was withdrawn and added to ice-cold CH3CN (40 µL). The subsequent steps were performed as described above including analysis by radio-TLC.
For the t1/2 approach at n.c.a. level, the obtained fractions of intact [^18F]7b (by radio-HPLC or radio-TLC analysis) were plotted against the time. Nonlinear regression was performed by one-phase decay (equation 1) as implemented in GraphPad Prism (GraphPad Prism 9.5.1.733), which provided the t1/2 values. The fraction at X = 0 min, Y0, was constrained to 1.0.1 Y0=Y0-Plateau×e^-k×X+Plateau
Subsequently, the intrinsic clearance, CLint (mL*min^−1*kg^−1), was calculated using equation 2 (Obach et al. [1997]; Schneider et al. [2019])2 CLint=ln2/t1/2min×fuinc×1/MLM(mg/mL)×microsomalprotein/liverweightmg/g×liverweight/bodyweightg/kg with the scaling factors of 60.1 mg/g (microsomal protein/liver weight for rats as no value for mice could be found) (Carlile et al. [1997]) and 87.5 g/kg (liver weight/body weight for mice) (Davies and Morris [1993]). The concentration of the MLMs was 1 mg/mL.
For the Vmax/Km approach, the obtained fractions of intact [^18F]7b (by radio-TLC analysis) were plotted against the time (fraction plot). The concentration plot was obtained by transformation of the fractions into concentrations of 7b by taking the experimentally determined molar activity of [^18F]7b into account (i.e. final concentration of 1.14, 6.16, 11.14, 21.14, 41.14, and 81.14 µM for 7b in the performed experiments). Both plots were analyzed by nonlinear regression according to one-phase decay (equation 1). […]

[1] = design: method as in Schuppan et al. [2021]; conditions: patients with celiac disease; ref Schuppan et al. [2021]; cited from earlier work

Compound | consumption of positive control by MLM (Liver microsome assay) | effect on duodenal mucosa [1] | tolerability [1]
C[C@]12CC[C@H]3[C@@H](CCC4=CC(=O)CC[C@@]43C)[C@@H]1CC[C@@H]2O [Testosterone, reference compound] | completely consumed |  | 
CCC(CC)CNC(=O)Cn1cccc(NC(=O)[C@H](CC/C=C/C(=O)OC)NC(=O)c2cncn2C)c1=O [ZED1227] |  | attenuated damage of the duodenal mucosa | well-tolerated
